IC50 and inhibition data for 2 compounds are collected here from article PMC11266677, “Vitamin B5 metabolism is essential for vacuolar and mitochondrial functions and drug detoxification in fungi” (Communications Biology, 2024).

The term IC50 denotes the point on the concentration scale where inhibition reaches its midpoint. Low values mean greater potency in that assay, high ones weaker potency in that assay. One may read the inhibition as the percentage by which the read-out fell short of the control.

Assay [1] has as its target T1, Acs1 (acetyl CoA synthetase) (Saccharomyces cerevisiae, UniProt Q01574).
T1 construct: purified S. cerevisiae acetyl CoA synthetase (Sigma, A1765)
Kind of assay: hydroxylamine-coupled acetyl CoA synthetase assay (acethydroxamic acid, OD540). The format is biochemical.

Assay [2] addresses T1, Acs1 (acetyl CoA synthetase). Kind of assay: hydroxylamine-coupled acetyl CoA synthetase assay; […] inhibition at […]. The format is biochemical.

T1 sequence (Q01574 whole entry): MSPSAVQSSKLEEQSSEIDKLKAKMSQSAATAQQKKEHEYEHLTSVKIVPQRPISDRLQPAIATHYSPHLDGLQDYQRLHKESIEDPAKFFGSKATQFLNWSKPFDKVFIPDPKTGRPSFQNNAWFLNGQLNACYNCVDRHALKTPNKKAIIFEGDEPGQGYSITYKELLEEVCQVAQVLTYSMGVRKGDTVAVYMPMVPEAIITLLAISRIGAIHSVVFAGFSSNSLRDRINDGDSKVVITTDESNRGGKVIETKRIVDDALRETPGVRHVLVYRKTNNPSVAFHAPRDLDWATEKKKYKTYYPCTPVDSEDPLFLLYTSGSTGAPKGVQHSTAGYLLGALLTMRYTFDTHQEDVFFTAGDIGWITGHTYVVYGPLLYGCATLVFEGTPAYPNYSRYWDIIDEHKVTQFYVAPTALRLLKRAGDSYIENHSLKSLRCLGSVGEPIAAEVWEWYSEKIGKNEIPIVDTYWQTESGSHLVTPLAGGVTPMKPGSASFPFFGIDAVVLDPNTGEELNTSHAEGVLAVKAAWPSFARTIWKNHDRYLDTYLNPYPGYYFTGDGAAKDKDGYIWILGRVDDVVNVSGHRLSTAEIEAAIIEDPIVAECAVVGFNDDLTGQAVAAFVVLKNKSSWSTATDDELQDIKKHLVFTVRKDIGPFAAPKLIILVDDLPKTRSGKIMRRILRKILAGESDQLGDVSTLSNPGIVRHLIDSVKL

In the case of `NCC(=O)Nc1ccc(-n2nc(C(F)(F)F)cc2-c2ccc3c(ccc4ccccc43)c2)cc1` [AR-12], the IC50 in assay [1] was ~18 µM.
Turning to `CC(C)c1ccc(CC(=O)N2CCN(c3ccc(C#N)nn3)CC2)cc1` [PZ-2891], the inhibition at 18.8 µM in assay [2] came to 32.7%.
